Measured values: US20220095622A1, “Application of Compounds Inhibiting Synthesis of Very Long Chain Fatty Acids in Preventing and Treating Microbial Pathogens and Method Thereof” (Sichuan Agricultural University, priority 2019, published 2022)
Where two headings read alike, the source gives them in different places.

Legend:
Type in all cases: in vivo
Bipolaris maydis = assay: whole plant or invertebrate; conditions: for inhibition at 500 µM: Bipolaris maydis, in Zea mays, read-out: inhibition rate on the formation of disease spots
Magnaporthe oryzae [1] = assay: whole plant or invertebrate; conditions: for inhibition at 100 µM / inhibition at 500 µM: Pyricularia oryzae, read-out: inhibition rate on the number of necrotic spots
Magnaporthe oryzae [2] = assay: whole plant or invertebrate; conditions: Pyricularia oryzae, read-out: inhibition rate of formation of rice blast necrotic spots, prevention experimental group
Magnaporthe oryzae [3] = assay: whole plant or invertebrate; conditions: Pyricularia oryzae, read-out: inhibition rate of formation of rice blast necrotic spots, treatment experimental group
Blumeria graminis = assay: Pathogenicity of Blumeria graminis on wheat leaves; conditions: 500 μmol/L, vs DMSO

Structure (SMILES)	inhibition of formation of disease spots on corn leaves (in words) (Bipolaris maydis; in vivo)	inhibition at 100 µM (Magnaporthe oryzae [1]) [%]	inhibition at 500 µM (Magnaporthe oryzae [1]) [%]	inhibition at 500 µM (Magnaporthe oryzae [2]) [%]	inhibition at 500 µM (Magnaporthe oryzae [3]) [%]	inhibition at 500 µM (Bipolaris maydis) [%]	inhibition of the number of necrotic spots of Magnaporthe oryzae (in words) (Magnaporthe oryzae [1]; drug concentration 100 μM, 30 seedlings sprayed with 5 mL, rice)	inhibition of occurrence of Blumeria graminis disease spots (in words) (Blumeria graminis)
CC(C)N(C(=O)COc1nnc(C(F)(F)F)s1)c1ccc(F)cc1 [Flufenacet]	not obvious	–	–	–	–	–	–	–
CC(C)N(C(=O)SC/C(Cl)=C/Cl)C(C)C [Diallate]	–	> 50	> 50	> 50	> 50	–	–	–
Cc1cccc(C)c1N(Cn1cccn1)C(=O)CCl [Metazachlor]	–	> 50	> 50	> 50	> 50	> 50	–	–
CCN(CC)C(=O)n1cnc(S(=O)(=O)c2c(C)cc(C)cc2C)n1 [Cafenstrole]	–	> 50	> 50	> 50	> 50	> 50	–	–
CC(C)N(C(=O)CCl)c1ccccc1 [Propachlor]	–	–	–	–	–	> 50	insignificant inhibitory effect on rice blast	all drugs except Propachlor could inhibit the occurrence of Blumeria graminis disease spots
CCCCOCN(C(=O)CCl)c1c(CC)cccc1CC [Butachlor]	–	–	> 50	–	–	> 50	–	–
